The source made the active and inactive calls. No cut-off for these calls is given here.
Tests used:
Bos taurus = species: Bos taurus; experiment: Inhibition of electron transport protein complex 2 in bovine hear mitochondria assessed as reduction of succinate-induced oxygen consumption at 5 uM
Trypanosoma cruzi = experiment: Antitrypanosomal activity against trypomastigote forms of Trypanosoma cruzi Tulahuen C4 expressing LacZ gene infected in rat L6 cells after 96 hrs by inverted microscope analysis; assay type: functional, organism-based; settings: Tulahuen C4, L6, 96 h
[1] = tested on: Trypanosoma brucei rhodesiense; experiment: Antitrypanosomal activity against bloodstream forms of Trypanosoma brucei rhodesiense STIB 900 after 72 hrs by alamar blue assay; assay type: functional, organism-based; settings: STIB 900, 72 h
L6 = experiment: Cytotoxicity against rat L6 cells after 72 hrs by alamar blue assay; assay type: cell-based; settings: L6, 72 h
[2] = Selectivity index, ratio of IC50 for rat L6 cells to IC50 for trypomastigote forms of Trypanosoma cruzi Tulahuen C4; assay type: toxicity, cell-based; settings: read-out: Ratio IC50
Leishmania donovani = experiment: Antitrypanosomal activity against amastigotes of Leishmania donovani MHOM/ET/67/L82 after 72 hrs by inverted microscope analysis; assay type: functional, organism-based; settings: MHOM/ET/67/L82, 72 h
Trypanosoma brucei = experiment: Inhibition of recombinant Trypanosoma brucei GAPDH assessed as oxidative phosphorylation of D-glyceraldehyde-3-phosphate to 1,3-bisphosphoglycerate at 5 uM by spectrophotometric method relative to 2-phenoxy-1,4-naphthoquinone
[3] = Selectivity index, ratio of IC50 for rat L6 cells to IC50 for amastigotes of Leishmania donovani MHOM/ET/67/L82; assay type: toxicity, cell-based; settings: read-out: Ratio IC50
[4] = Selectivity index, ratio of IC50 for rat L6 cells to IC50 for bloodstream forms of Trypanosoma brucei rhodesiense STIB 900; assay type: toxicity, cell-based; settings: read-out: Ratio IC50

SMILES	inhibition (Bos taurus)	IC50 (Trypanosoma cruzi) [µM]	IC50 [1] [µM]	inhibition (Trypanosoma brucei) [%]	IC50 (L6) [µM]	selectivity ratio [2]	IC50 (Leishmania donovani) [µM]	selectivity ratio [3]	selectivity ratio [4]
COc1ccc(OC2=CC(=O)c3cccc(OC)c3C2=O)cc1	inactive		6.03	48	1.09		22.5	0.05	0.18
CCCCCCCCCCCCCCCCOP(=O)([O-])OCC[N+](C)(C)C [MILTEFOSINE]								462	
O=C1C=C(Oc2ccc(F)cc2)C(=O)c2ccccc21	inactive	3.91	4.06	80	4.51	1.15	1.82	2.47	1.11
CC(=O)Nc1ccc(OC2=CC(=O)c3ccccc3C2=O)cc1	inactive	4.17	2.4	68	3.35	0.8	4.04	0.83	1.39
O=C1C(Oc2ccc(F)cc2)=CC(=O)c2c(O)cccc21	inactive		2.69	136	1.41		2.99	0.47	0.52
COc1cccc2c1C(=O)C(Oc1ccc(NC(C)=O)cc1)=CC2=O	inactive		4.15	64	0.65		5.87	0.11	0.16
O=C(Cn1ccnc1[N+](=O)[O-])NCc1ccccc1 [BENZNIDAZOLE]					> 384				
O=C1C=C(Oc2ccccc2)C(=O)c2cc3ccccc3cc21				68					
Cc1ccc(OC2=CC(=O)c3c(O)cccc3C2=O)cc1	inactive		2.37	40	1.03		5.46	0.19	0.44
Nc1nc(N)nc(Nc2ccc([As]3SCC(CO)S3)cc2)n1 (configuration not stated) [MELARSOPROL]									1830
Cc1ccc(OC2=CC(=O)c3cccc(O)c3C2=O)cc1	inactive	7.39	2.58	44	4.03	0.54	2.99	1.34	1.56
COc1cc([C@@H]2c3cc4c(cc3[C@H](O)[C@H]3COC(=O)[C@H]23)OCO4)cc(OC)c1OC [PODOFILOX]					0.002				
COc1ccc(OC2=CC(=O)c3ccccc3C2=O)cc1	inactive	4.17	2.43	28	6.1	1.46	5.32	1.15	2.51

Further compounds by falling IC50 [1], results first:

inhibition (Bos taurus)	IC50 (Trypanosoma cruzi) [µM]	IC50 [1] [µM]	inhibition (Trypanosoma brucei) [%]	SMILES	IC50 (L6) [µM]	selectivity ratio [2]	IC50 (Leishmania donovani) [µM]	selectivity ratio [3]	selectivity ratio [4]
inactive	1.62	2.28	24	Cc1ccc(OC2=CC(=O)c3ccccc3C2=O)cc1	3.82	2.35	3.41	1.12	1.67
inactive		2.18	20	COc1cccc2c1C(=O)C(Oc1ccc(C)cc1)=CC2=O	0.75		10.9	0.07	0.34
inactive		2.17	0	CC(=O)Nc1ccc(OC2=CC(=O)c3c(O)cccc3C2=O)cc1	0.59		3.8	0.15	0.27
inactive		1.76	72	COc1cccc2c1C(=O)C(Oc1ccccc1)=CC2=O	0.64		13.1	0.05	0.36
inactive		1.71	76	COc1ccc(OC2=CC(=O)c3cccc(O)c3C2=O)cc1	1.04		3.13	0.33	0.61
inactive		1.44	24	COc1ccc(OC2=CC(=O)c3c(O)cccc3C2=O)cc1	1.04		2.11	0.5	0.73
inactive		1.37	128	O=C1C=C(Oc2ccc(F)cc2)C(=O)c2c(O)cccc21	0.74		1.33	0.55	0.54
inactive		1.21	90	CC(=O)Nc1ccc(OC2=CC(=O)c3cc4ccccc4cc3C2=O)cc1	0.19		3.25	0.06	0.16
inactive		1.21	32	O=C1C=C(Oc2ccc(F)cc2)C(=O)c2cc3ccccc3cc21	1.07		2.14	0.5	0.88
inactive		0.85	84	O=C1C=C(Oc2ccccc2)C(=O)c2c(O)cccc21	1.5		2.96	0.51	1.76
inactive		0.73	0	Cc1ccc(OC2=CC(=O)c3cc4ccccc4cc3C2=O)cc1	0.13		1.16	0.11	0.17
inactive		0.68	88	COc1cccc2c1C(=O)C=C(Oc1ccccc1)C2=O	1.85		5.6	0.33	2.74
inactive	4.06	0.67	52	COc1cccc2c1C(=O)C=C(Oc1ccc(NC(C)=O)cc1)C2=O	4.89	1.2	4.77	1.02	7.3
inactive		0.67	120	COc1cccc2c1C(=O)C=C(Oc1ccc(F)cc1)C2=O	1.34		3.72	0.36	1.99
inactive		0.65	48	CC(=O)Nc1ccc(OC2=CC(=O)c3cccc(O)c3C2=O)cc1	0.15		2.33	0.07	0.24
inactive		0.64	44	COc1ccc(OC2=CC(=O)c3c(OC)cccc3C2=O)cc1	1.58		3.09	0.51	2.46
inactive		0.55	40	COc1cccc2c1C(=O)C=C(Oc1ccc(C)cc1)C2=O	1.49		2.64	0.57	2.71

From ChEMBL document CHEMBL3603776, “2-Phenoxy-1,4-naphthoquinones: From a Multitarget Antitrypanosomal to a Potential Antitumor Profile” (J Med Chem, 2015)
